The assay deals with T1, SRPK1 (Homo sapiens, UniProt Q96SB4).
T1 construct: purchased Thermo Fisher Scientific (Life Technologies) SelectScreen
In words: SelectScreen Z'LYTE. The format is biochemical. In short, it runs like this: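 NU5455 was profiled across the SelectScreen Broad panel of kinase activity and binding assays. Z'LYTE reactions such as CSF1R ran at apparent Km ATP, while the Adapta CAMK1 assay used ATP listed as 10. Values are given as percent.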

Consider one molecule from paper PMC6934184, “Selective DNA-PKcs inhibition extends the therapeutic index of localized radiotherapy and chemotherapy” (The Journal of Clinical Investigation, 2019).

T1 sequence (Q96SB4 whole entry): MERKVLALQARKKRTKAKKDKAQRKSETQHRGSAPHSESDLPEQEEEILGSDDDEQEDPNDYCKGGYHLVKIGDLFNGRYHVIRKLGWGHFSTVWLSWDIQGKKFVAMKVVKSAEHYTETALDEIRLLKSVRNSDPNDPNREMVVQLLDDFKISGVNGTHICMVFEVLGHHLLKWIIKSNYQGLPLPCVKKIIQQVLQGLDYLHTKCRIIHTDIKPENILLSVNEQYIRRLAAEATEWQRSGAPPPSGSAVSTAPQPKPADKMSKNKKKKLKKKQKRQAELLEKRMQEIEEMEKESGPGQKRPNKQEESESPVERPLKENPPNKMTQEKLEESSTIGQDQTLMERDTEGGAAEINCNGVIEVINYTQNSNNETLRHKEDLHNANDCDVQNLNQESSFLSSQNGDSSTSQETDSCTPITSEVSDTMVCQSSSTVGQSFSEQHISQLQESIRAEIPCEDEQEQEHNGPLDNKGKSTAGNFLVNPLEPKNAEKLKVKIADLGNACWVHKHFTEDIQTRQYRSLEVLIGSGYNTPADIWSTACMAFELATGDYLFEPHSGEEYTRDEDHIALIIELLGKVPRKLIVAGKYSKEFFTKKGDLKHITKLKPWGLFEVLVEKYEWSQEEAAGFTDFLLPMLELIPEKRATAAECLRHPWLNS

For `CN(C(=O)CN1CCOCC1)c1ccc2sc3c(-c4cccc5c(=O)cc(N6CC7CCC(C6)O7)oc45)cccc3c2c1` [NU5455], the inhibition at 1 µM was -1.1%.

For orientation: inhibition means the change of the read-out against control, counted positive when it falls.
